Earlier results as cited in patent US6447754B1, “Oral rinse methods and compositions” (AkPharma Inc., priority 2000, dated 2002).

Details: in animals; ingestion

In the case of “1,2,3-propanetriol, mono(dihydrogen phosphate) calcium salt (1:1) [CGP]”, the “upper limit of CGP which can safely be ingested” value is given as “greater than 5 grams of CGP per kilogram of body weight”.
